Source: patent publication US20150285789A1, “ASSAYS, SYSTEMS, AND METHODS FOR OBTAINING PERSONALIZED ANABOLIC PROFILES” (BOSTON MEDICAL CENTER CORPORATION, priority 2012, published 2015)
“Also recorded” adds a separate entry of the source.

system: C2C12 cells; assay: High-throughput screen for small molecules that augment BMP-2 induced ALP expression (osteoblast conversion); format: cell-based, mouse; conditions: DM + BMP-2 + compound at target concentration 1 μM, 72 h, duplicate; ImageJ, Digilab and visual inspection analyses
Description: The level of alkaline phosphatase (ALP) activity measured colorimetrically was scored in all wells using three criteria (see Exemplary materials and methods in the Examples section). […] ALP intensity images were acquired using a Digilab Plate reader. Images were analyzed using three independent criteria and considered for secondary screening and validation in the MC3T3 pre-osteoblast cell line Enhancement of the mRNA and protein levels of the mature osteoblast markers RunX2 and osterix was tested. *Plates were run in duplicate.
C2C12 cells were plated at 750 cells per well in a 384-square well plate and were allowed to adhere for 24 h in growth media (GM). […] After 72 h, cells were fixed and stained for alkaline phosphatase (ALP) and DAPI for nuclei visualization. […] It was next sought to screen a larger set of small molecules from more diverse backgrounds to identify enhancement of osteoblast conversion.
Cell culture: C2C12. The C2C12 myoblast cell line (ATCC) was maintained in growth medium (GM) that consisted of high glucose DMEM (Gibco), 10% fetal bovine serum (Gibco), and 1% pen/strep (Invitrogen). […] Negative controls were switched to DM but only received 20 mM acetic acid. Cells were passaged approximately every two days and were kept below 70% con-fluency, as per manufacturer's instructions. MC3T3-E1. MC3T3-E1 subclone 4 pre-osteoblast cells (ATCC #CRL-2593) were maintained in minimum essential medium, alpha modification (Invitrogen #A10490-01) containing 10% FBS and 1% penicillin/streptomycin. […] All cell lines used were maintained in a 37° C. incubator at 5% CO2.
384-square well plates (BD) were used for primary screening. PBS was added to the outermost wells to reduce edge effects. In each plate, 40 wells were used as positive controls, 28 wells were used as negative controls, and the center 240 wells were used for compound testing. All plates were screened in duplicate. The inner 308 wells received 750 cells per well and were allowed to adhere in GM for 24 h. GM was then removed, wells were washed once with PBS, and DM was added to the inner 308 wells. Negative control wells received DM. […] DMSO was used as the vehicle for compound addition in this study. DMSO was also added to positive and negative control wells in equimolar amounts.
Cells were initially fixed with a fixative solution that consisted of a 3:10:26 ratio mixture of 37% formaldehyde: citrate: acetone. Colorimetric detection of osteoblasts was achieved using the alkaline phosphatase (ALP) kit obtained from Sigma-Aldrich (Catalog #86C). Cell number was determined based on nuclei staining with DAPI nucleic acid stain as per manufacturer's instructions (Invitrogen).
Well images identifying ALP+ cells were acquired using a MIAS-2 plate reader, as per manufacturer's instructions (Digilab, Holliston, Mass.).
Acquired images were assessed using three different search strategies (ImageJ software, Digilab software, and systematic scanning by eye); each having different sensitivities and specificities with regard to the assay.
Well images were opened with the image software platform ImageJ. Images were normalized on a per plate basis and, since ALP positive cells become darker in a gray scale image, the image darkness was assessed. Images were analyzed using an Area Fraction method whereby a minimum pixel darkness threshold was applied for all image wells. All pixels that were as dark or darker than the threshold applied were converted to black. […] The binary image was then assessed to see percentage of pixels of the image that were black (i.e. Area Fraction). Average Area Fraction from duplicate compound wells was divided by average duplicate nuclei count (as measured by DAPI count in ImageJ) to get Area Fraction on a per-cell basis. This ratio (Area Fraction: Nuclei count) was then compared to positive control wells.
Well images were analyzed using eaZYX Image Analyzer software (Digilab, Holliston, Mass.).

Molecule | enhancement of BMP-2 induced ALP expression (screen hit)
CC[C@@H]1/C=C(\C)C[C@H](C)C[C@H](OC)[C@H]2O[C@@](O)(C(=O)C(=O)N3CCCC[C@H]3C(=O)O[C@H](/C(C)=C/[C@@H]3CC[C@@H](O)[C@H](OC)C3)[C@H](C)[C@@H](O)CC1=O)[C@H](C)C[C@@H]2OC [FK-520] | also identified but was not among the top hits
CCCCC[C@H](O)/C=C/C1=C(C/C=C\CCCC(=O)O)C(=O)CC1 [prostaglandin B2] | identified in all three analyses
CCCCC[C@H](O)/C=C/C1=C(CCCCCCC(=O)O)C(=O)CC1 [prostaglandin B1] | enhanced ALP expression
CC1=C(/C=C/C(C)=C/C=C/C(C)=C\C(=O)O)C(C)(C)CCC1 [13-cis retinoic acid] | identified in all three analyses
Oc1ccc(C=Cc2cc(O)cc(O)c2)cc1 [resveratrol] | notable hits among the top 45 compounds
COC(=O)C1=C(C)NC(C)=C(C(=O)OCCSc2ccccc2)C1C (stereo not drawn) [PCA 4248] | identified in all three analyses
C=C(c1ccc(C(=O)O)cc1)c1cc2c(cc1C)C(C)(C)CCC2(C)C [bexarotene] | identified in all three analyses
CCCCC[C@H](O)/C=C/[C@H]1[C@H](O)CC(=O)[C@@H]1CCCCCCC(=O)O [prostaglandin E1] | identified in all three analyses; also recorded: enhanced ALP expression
C/C(=C\c1ccc(C(=O)O)cc1)c1ccc2c(c1)C(C)(C)CCC2(C)C [TTNPB] | identified in all three analyses
COc1c(C)c2c(c(O)c1C/C=C(\C)CCC(=O)OCCN1CCOCC1)C(=O)OC2 [mycophenolate mofetil] | identified in all three analyses
O=C1NC(=O)C(c2ccccc2)(c2ccccc2)N1 [phenytoin] | identified in all three analyses
CCCCC[C@H](O)/C=C/[C@H]1[C@H](O)CC(=O)[C@@H]1C/C=C\CCCC(=O)O [prostaglandin E2] | enhanced ALP expression
CCCCC[C@H](O)CC[C@H]1[C@H](O)CC(=O)[C@@H]1CCCCCCC(=O)O [13, 14-Dihydro-prostaglandin E1] | enhanced ALP expression
COc1c(C)c2c(c(O)c1C/C=C(\C)CCC(=O)O)C(=O)OC2 [mycophenolic acid] | identified in all three analyses
C=C[C@H]1C[N@@]2CC[C@H]1C[C@H]2[C@H](O)c1ccnc2ccc(OC)cc12 [quinine] | identified in all three analyses
CCCCCCCCCCCCCCC[C@@H](O)[C@H](CO)NC(C)=O [C2 dihydroceramide] | identified in all three analyses

system: MC3T3 cells; assay: TGFβ1 mediated inhibition of osteoblast differentiation, qRT-PCR of Runx2, Osx and Smad 7; format: cell-based, mouse; conditions: TGFβ1 added to MC3T3 cells
Description: MC3T3 cells were treated with media containing 1 ng/mL of TGFβ1 for 24 h and then the media were replaced with BMP-2 or BMP-2 with 100 ng/mL rapamycin. RNA was collected 24 h afterwards and analyzed by qRT-PCR and the ΔΔCT method. […] Shown are representative results (average of duplicates) of at least three independent experiments.
Total RNA was extracted by the TRIzol method as recommended by the manufacturer (Invitrogen). Isolated RNA was cleaned up using the Rneasy Kit (Qiagen) and 500 ng of RNA was reverse-transcribed using the High Capacity cDNA Synthesis Kit (Applied Biosystems #4368813). Taqman expression assays were used for detection. The expression of 18S (Applied Biosystems #4319413E) was used for normalization of gene expression values. Real-time primers Runx2, Sp7 (Osx), Bglap1 (Ocn) and Smad 7 were obtained from Applied Biosystems (Mm00501580_ml, Mm00504574_ml, Mm03413826_ml and Mm00484742_ml respectively). Quantification was determined using the ΔΔCT method and normalized to the untreated sample.

Molecule | Runx2 and Osx mRNA, basal levels
TGFβ1: transforming growth factor (TGF)-β1, anti-inflammatory cytokine used as antagonist of osteoblast differentiation | reduces basal levels

same assay, conditions: factor alone

Molecule | Smad-7 levels
TGFβ1: transforming growth factor (TGF)-β1, anti-inflammatory cytokine used as antagonist of osteoblast differentiation | no apparent affect
